ChEMBL document CHEMBL5649168, “Discovery of a selective catalytic p300/CBP inhibitor that targets lineage-specific tumours” (Nature, 2017)

Columns and labels:
NCI-H2081 = experiment: Antiproliferative activity against human NCI-H2081 cells assessed as inhibition of cell viability incubated for 3 to 5 days by Celltiter-Glo luminescent assay; format: functional, cell-based
OCI-AML-5 = experiment: Antiproliferative activity against human OCI-AML5 cells assessed as inhibition of cell viability incubated for 3 to 5 days by Celltiter-Glo luminescent assay; format: functional, cell-based
[1] = biological target: Dual specificity mitogen-activated protein kinase kinase 3 (Homo sapiens, UniProt P46734); experiment: Inhibition of MAP2K3 (unknown origin)
Dual specificity mitogen-activated protein kinase kinase 3, sequence (P46734 whole entry): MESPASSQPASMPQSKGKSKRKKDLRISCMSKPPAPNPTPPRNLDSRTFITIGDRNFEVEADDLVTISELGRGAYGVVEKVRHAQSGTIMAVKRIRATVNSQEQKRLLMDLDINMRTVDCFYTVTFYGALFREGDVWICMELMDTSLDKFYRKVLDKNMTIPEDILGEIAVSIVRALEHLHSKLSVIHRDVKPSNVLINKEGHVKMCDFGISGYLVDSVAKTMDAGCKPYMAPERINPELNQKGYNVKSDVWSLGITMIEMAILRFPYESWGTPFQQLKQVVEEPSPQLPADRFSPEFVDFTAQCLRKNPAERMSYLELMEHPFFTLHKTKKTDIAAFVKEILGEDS

[2] = AUC in CB17 SCID mouse xenografted with LuCaP-77 CR cell at 100 mg/kg, ip administered for 7 days; format: ADME, organism-based; conditions: in vivo, time 7 day
THP-1 = experiment: Antiproliferative activity against human THP-1 cells assessed as inhibition of cell viability incubated for 3 to 5 days by Celltiter-Glo luminescent assay; format: functional, cell-based
OCI-Ly18 = experiment: Antiproliferative activity against human OCI-Ly18 cells assessed as inhibition of cell viability incubated for 3 to 5 days by Celltiter-Glo luminescent assay; format: functional, cell-based
[3] = biological target: Mitogen-activated protein kinase kinase kinase 10 (Homo sapiens, UniProt Q02779); experiment: Inhibition of MAP3K10 (unknown origin)
Mitogen-activated protein kinase kinase kinase 10, sequence (Q02779 whole entry): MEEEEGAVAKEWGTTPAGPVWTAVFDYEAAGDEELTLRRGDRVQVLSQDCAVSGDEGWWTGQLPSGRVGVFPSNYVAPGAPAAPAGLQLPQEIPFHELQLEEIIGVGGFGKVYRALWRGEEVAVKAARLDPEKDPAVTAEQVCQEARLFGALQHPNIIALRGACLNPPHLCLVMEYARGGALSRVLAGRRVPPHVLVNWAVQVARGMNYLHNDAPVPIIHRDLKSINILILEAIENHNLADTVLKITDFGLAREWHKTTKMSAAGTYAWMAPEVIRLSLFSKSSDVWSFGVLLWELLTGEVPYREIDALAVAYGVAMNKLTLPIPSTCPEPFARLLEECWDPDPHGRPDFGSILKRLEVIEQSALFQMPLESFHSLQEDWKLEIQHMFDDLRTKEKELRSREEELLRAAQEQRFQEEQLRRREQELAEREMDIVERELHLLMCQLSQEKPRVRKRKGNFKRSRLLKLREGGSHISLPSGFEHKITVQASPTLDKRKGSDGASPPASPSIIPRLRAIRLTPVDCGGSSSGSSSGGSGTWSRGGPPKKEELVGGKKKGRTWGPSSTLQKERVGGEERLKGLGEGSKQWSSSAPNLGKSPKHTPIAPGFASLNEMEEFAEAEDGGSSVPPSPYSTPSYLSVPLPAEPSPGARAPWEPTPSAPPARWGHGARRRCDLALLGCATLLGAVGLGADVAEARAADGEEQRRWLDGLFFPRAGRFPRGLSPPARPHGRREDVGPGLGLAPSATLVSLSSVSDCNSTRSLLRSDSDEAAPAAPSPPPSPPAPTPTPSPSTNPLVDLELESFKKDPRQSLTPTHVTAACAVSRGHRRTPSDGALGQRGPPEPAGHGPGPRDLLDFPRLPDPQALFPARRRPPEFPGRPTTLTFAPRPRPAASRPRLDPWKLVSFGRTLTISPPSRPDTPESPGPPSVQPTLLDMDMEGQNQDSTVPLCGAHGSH

[4] = Tmax in CB17 SCID mouse xenografted with LuCaP-77 CR cell at 50 mg/kg, ip administered for 7 days; format: ADME, organism-based; conditions: in vivo, time 7 day
[5] = biological target: Tyrosine-protein kinase receptor TYRO3 (Homo sapiens, UniProt Q06418); experiment: Inhibition of TYRO3 (unknown origin)
Tyrosine-protein kinase receptor TYRO3, sequence (Q06418 whole entry): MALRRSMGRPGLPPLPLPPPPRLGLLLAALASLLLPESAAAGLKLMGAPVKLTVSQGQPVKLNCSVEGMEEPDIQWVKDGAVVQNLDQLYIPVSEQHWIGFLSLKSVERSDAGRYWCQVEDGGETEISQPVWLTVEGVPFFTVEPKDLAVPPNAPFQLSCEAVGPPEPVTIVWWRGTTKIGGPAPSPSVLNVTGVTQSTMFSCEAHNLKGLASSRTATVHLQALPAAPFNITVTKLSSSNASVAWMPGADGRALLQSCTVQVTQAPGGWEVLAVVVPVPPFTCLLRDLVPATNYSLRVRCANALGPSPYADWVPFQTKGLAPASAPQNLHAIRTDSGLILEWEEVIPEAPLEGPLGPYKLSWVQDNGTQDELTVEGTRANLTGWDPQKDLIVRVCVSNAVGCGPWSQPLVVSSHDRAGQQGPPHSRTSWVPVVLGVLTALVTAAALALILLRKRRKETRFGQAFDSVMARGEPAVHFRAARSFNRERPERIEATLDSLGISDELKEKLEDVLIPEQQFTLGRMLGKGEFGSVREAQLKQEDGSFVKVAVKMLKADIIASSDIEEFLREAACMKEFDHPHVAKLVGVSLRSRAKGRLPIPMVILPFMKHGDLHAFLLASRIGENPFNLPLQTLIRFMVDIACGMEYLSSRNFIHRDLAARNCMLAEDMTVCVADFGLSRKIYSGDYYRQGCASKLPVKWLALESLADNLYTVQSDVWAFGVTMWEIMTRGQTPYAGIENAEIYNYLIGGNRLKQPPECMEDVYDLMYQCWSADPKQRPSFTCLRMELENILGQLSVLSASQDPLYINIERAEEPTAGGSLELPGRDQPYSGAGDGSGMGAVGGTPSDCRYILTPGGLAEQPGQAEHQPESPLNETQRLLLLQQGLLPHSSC

MAO-A = MAO-A (Homo sapiens, UniProt P21397); experiment: Inhibition of MAO-A (unknown origin) at 10 uM by radioligand binding assay relative to control
OCI-Ly1 = experiment: Antiproliferative activity against human OCI-Ly1 cells assessed as inhibition of cell viability incubated for 3 to 5 days by Celltiter-Glo luminescent assay; format: functional, cell-based
[6] = biological target: Protein kinase C zeta type (Homo sapiens, UniProt Q05513); experiment: Inhibition of PKCzeta (unknown origin)
[7] = biological target: Serine/threonine-protein kinase pim-1 (Homo sapiens, UniProt P11309); experiment: Inhibition of Pim1 (unknown origin)
Serine/threonine-protein kinase pim-1, sequence (P11309 whole entry): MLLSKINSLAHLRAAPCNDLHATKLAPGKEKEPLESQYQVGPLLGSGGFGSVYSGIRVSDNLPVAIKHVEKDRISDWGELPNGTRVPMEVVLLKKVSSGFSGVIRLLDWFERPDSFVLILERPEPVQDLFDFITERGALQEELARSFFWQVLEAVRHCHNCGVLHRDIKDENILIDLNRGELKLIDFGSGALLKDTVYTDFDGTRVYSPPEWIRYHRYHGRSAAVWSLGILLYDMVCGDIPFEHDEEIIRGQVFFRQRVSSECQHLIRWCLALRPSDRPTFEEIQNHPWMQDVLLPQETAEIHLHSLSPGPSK

NU-DUL-1 = experiment: Antiproliferative activity against human NU-DUL-1 cells assessed as inhibition of cell viability incubated for 3 to 5 days by Celltiter-Glo luminescent assay; format: functional, cell-based
[8] = biological target: Bromodomain-containing protein 3 (Homo sapiens, UniProt Q15059); experiment: Inhibition of BRD3 (unknown origin)
HCC70 = experiment: Antiproliferative activity against human HCC70 cells assessed as inhibition of cell viability incubated for 3 to 5 days by Celltiter-Glo luminescent assay; format: functional, cell-based
Toledo = experiment: Antiproliferative activity against human Toledo cells assessed as inhibition of cell viability incubated for 3 to 5 days by Celltiter-Glo luminescent assay; format: functional, cell-based
cells = conditions: Homo sapiens, SC-1
[9] = biological target: Serine/threonine-protein kinase PAK 4 (Homo sapiens, UniProt O96013); experiment: Inhibition of PAK4KD (unknown origin)
Serine/threonine-protein kinase PAK 4, sequence (O96013 whole entry): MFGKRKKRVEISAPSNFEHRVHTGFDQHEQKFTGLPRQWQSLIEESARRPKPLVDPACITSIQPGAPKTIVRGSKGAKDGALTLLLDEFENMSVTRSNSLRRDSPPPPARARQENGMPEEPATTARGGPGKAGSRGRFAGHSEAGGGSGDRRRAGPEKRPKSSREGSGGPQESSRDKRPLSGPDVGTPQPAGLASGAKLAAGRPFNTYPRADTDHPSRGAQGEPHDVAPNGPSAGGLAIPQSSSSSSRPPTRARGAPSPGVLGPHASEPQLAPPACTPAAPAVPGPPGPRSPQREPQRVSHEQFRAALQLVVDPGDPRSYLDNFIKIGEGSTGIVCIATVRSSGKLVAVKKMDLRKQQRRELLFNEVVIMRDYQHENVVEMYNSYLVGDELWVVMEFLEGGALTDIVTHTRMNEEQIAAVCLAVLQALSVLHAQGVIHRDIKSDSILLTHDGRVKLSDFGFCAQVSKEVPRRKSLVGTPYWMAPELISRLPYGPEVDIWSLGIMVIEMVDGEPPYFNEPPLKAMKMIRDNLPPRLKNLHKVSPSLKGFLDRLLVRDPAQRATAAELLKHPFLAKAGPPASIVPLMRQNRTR

Malme-3M = experiment: Antiproliferative activity against human Malme-3M cells assessed as inhibition of cell viability incubated for 3 to 5 days by Celltiter-Glo luminescent assay; format: functional, cell-based
[10] = biological target: Serine/threonine-protein kinase Nek2 (Homo sapiens, UniProt P51955); experiment: Inhibition of Nek2 (unknown origin)
Karpas-1106P = experiment: Antiproliferative activity against human KARPAS-1106P cells assessed as inhibition of cell viability incubated for 3 to 5 days by Celltiter-Glo luminescent assay; format: functional, cell-based
[11] = biological target: Dual specificity protein kinase CLK2 (Homo sapiens, UniProt P49760); experiment: Inhibition of CLK2 (unknown origin)
COLO-679 = experiment: Antiproliferative activity against human COLO-679 cells assessed as inhibition of cell viability incubated for 3 to 5 days by Celltiter-Glo luminescent assay; format: functional, cell-based
[12] = Tmax in CB17 SCID mouse xenografted with LuCaP-77 CR cell at 200 mg/kg, ip administered for 7 days; format: ADME, organism-based; conditions: in vivo, time 7 day
[13] = biological target: Serine/threonine-protein kinase D3 (Homo sapiens, UniProt O94806); experiment: Inhibition of PRKCN (unknown origin)
Serine/threonine-protein kinase D3, sequence (O94806 whole entry): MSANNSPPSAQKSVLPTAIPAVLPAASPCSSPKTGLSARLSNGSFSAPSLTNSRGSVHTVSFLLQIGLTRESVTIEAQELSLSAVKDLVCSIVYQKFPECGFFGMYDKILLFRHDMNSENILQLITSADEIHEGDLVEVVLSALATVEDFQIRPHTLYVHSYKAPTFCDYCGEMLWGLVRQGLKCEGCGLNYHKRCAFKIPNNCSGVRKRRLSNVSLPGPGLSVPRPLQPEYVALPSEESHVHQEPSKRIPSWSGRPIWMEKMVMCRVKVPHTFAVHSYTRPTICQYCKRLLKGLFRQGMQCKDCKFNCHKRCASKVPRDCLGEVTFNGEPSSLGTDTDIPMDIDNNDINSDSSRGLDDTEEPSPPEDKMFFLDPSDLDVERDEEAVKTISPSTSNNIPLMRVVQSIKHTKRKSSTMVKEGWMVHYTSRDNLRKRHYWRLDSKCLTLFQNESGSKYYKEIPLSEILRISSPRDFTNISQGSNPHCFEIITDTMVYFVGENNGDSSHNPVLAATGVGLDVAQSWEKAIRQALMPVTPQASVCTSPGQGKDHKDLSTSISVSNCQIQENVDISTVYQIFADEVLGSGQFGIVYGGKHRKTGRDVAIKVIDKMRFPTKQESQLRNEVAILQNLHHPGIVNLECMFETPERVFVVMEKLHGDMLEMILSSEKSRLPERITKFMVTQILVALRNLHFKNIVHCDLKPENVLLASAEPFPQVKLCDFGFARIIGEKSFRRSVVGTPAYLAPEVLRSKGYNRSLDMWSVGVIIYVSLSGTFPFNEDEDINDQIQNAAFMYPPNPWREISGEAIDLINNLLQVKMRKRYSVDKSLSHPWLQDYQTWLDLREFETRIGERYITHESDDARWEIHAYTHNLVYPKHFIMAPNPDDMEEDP

HT = experiment: Antiproliferative activity against human HT cells assessed as inhibition of cell viability incubated for 3 to 5 days by Celltiter-Glo luminescent assay; format: functional, cell-based
[14] = biological target: Bromodomain testis-specific protein (Homo sapiens, UniProt Q58F21); experiment: Inhibition of BRDT (unknown origin)
NCI-H510A = experiment: Antiproliferative activity against human NCI-H510A cells assessed as inhibition of cell viability incubated for 3 to 5 days by Celltiter-Glo luminescent assay; format: functional, cell-based
[15] = Ratio of drug concentration in brain to plasma in CB17 SCID mouse xenografted with LuCaP-77 CR cell at 50 mg/kg, po measured after 24 hrs
[16] = AUC in CB17 SCID mouse xenografted with LuCaP-77 CR cell at 200 mg/kg, ip administered for 7 days; format: ADME, organism-based; conditions: in vivo, time 7 day
[17] = biological target: Dual specificity tyrosine-phosphorylation-regulated kinase 1B (Homo sapiens, UniProt Q9Y463); experiment: Inhibition of DYRK1B (unknown origin)
NCI-H929 = experiment: Antiproliferative activity against human NCI-H929 cells assessed as inhibition of cell viability incubated for 3 to 5 days by Celltiter-Glo luminescent assay; format: functional, cell-based
[18] = biological target: Vascular endothelial growth factor receptor 2 (Homo sapiens, UniProt P35968); experiment: Inhibition of Kdr (unknown origin)
SU-DHL-2 = experiment: Antiproliferative activity against human SUDHL2 cells assessed as inhibition of cell viability incubated for 3 to 5 days by Celltiter-Glo luminescent assay; format: functional, cell-based
4T1 = experiment: Antiproliferative activity against mouse 4T1 cells assessed as inhibition of cell viability incubated for 3 to 5 days by Celltiter-Glo luminescent assay; format: functional, cell-based
G-361 = experiment: Antiproliferative activity against human G361 cells assessed as inhibition of cell viability incubated for 3 to 5 days by Celltiter-Glo luminescent assay; format: functional, cell-based
NCI-H128 = experiment: Antiproliferative activity against human NCI-H128 cells assessed as inhibition of cell viability incubated for 3 to 5 days by Celltiter-Glo luminescent assay; format: functional, cell-based
[19] = biological target: Tyrosine-protein kinase BTK (Homo sapiens, UniProt Q06187); experiment: Inhibition of BTK (unknown origin)
Tyrosine-protein kinase BTK, sequence (Q06187 whole entry): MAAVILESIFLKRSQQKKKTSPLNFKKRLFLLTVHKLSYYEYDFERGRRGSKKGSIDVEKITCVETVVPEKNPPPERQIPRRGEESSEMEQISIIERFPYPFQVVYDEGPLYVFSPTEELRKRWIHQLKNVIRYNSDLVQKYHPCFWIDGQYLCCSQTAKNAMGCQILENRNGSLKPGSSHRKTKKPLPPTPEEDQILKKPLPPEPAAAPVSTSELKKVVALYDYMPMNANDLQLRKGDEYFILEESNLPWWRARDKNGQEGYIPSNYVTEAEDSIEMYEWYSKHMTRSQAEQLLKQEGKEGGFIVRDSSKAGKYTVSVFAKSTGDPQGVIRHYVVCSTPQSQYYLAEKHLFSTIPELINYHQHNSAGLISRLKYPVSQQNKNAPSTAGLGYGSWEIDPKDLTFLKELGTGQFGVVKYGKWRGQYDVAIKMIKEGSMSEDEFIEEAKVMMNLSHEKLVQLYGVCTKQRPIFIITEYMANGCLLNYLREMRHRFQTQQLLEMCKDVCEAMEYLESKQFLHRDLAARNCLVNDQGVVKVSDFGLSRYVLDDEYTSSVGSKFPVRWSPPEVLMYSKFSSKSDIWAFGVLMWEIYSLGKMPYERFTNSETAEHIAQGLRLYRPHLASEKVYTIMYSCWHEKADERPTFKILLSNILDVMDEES

MDA-MB-157 = experiment: Antiproliferative activity against human MDA-MB-157 cells assessed as inhibition of cell viability incubated for 3 to 5 days by Celltiter-Glo luminescent assay; format: functional, cell-based
MDA-MB-468 = experiment: Antiproliferative activity against human MDA-MB-468 cells assessed as inhibition of cell viability incubated for 3 to 5 days by Celltiter-Glo luminescent assay; format: functional, cell-based
[20] = biological target: Ca2+ channel (L, dihydropyridine site) (Homo sapiens, UniProt O60840+Q01668+Q13698+Q13936); experiment: Inhibition of Ca2+ channel (L, dihydropyridine site) (unknown origin) at 10 uM by radioligand binding assay relative to control; format: protein assay

With `CNC(=O)Nc1ccc2c(c1)CC[C@@]21OC(=O)N(CC(=O)N(Cc2ccc(F)cc2)[C@@H](C)C(F)(F)F)C1=O` [A-485] the EC50 (NCI-H2081) was over 10 µM, the EC50 (OCI-AML-5) was 4.86 µM and the IC50 [1] was over 10 µM. The AUC at 168 h [2] was 417 µg·h/mL, the EC50 (THP-1) was 3.51 µM and the EC50 (OCI-Ly18) was 0.32 µM. It also gave an IC50 [3] of over 10 µM, a Tmax [4] of 3 h and an IC50 [5] of over 10 µM. For the same molecule, the inhibition at 10 µM (MAO-A) was 28%, the EC50 (OCI-Ly1) was 0.94 µM and the IC50 [6] was over 10 µM. The IC50 [7] was over 10 µM, the EC50 (NU-DUL-1) was 0.48 µM and the IC50 [8] was over 10 µM. For the same molecule, the EC50 (HCC70) was over 10 µM, the EC50 (Toledo) was 0.49 µM and the EC50 (cells) was 1.69 µM. The IC50 [9] was over 10 µM, the EC50 (Malme-3M) was 2.69 µM and the IC50 [10] was over 10 µM. It also gave an EC50 (Karpas-1106P) of 0.41 µM, an IC50 [11] of over 10 µM and an EC50 (COLO-679) of 2.26 µM. It also gave a Tmax [12] of 6 h, an IC50 [13] of over 10 µM and an EC50 (HT) of over 10 µM. The IC50 [14] was over 10 µM, the EC50 (NCI-H510A) was over 10 µM and the Kp at 24 h [15] was 0.097. For the same molecule, the AUC at 168 h [16] was 2950 µg·h/mL, the IC50 [17] was over 10 µM and the EC50 (NCI-H929) was 0.33 µM. It also gave an IC50 [18] of over 10 µM, an EC50 (SU-DHL-2) of 0.95 µM and an EC50 (4T1) of over 10 µM. For the same molecule, the EC50 (G-361) was 3.77 µM, the EC50 (NCI-H128) was over 10 µM and the IC50 [19] was over 10 µM. The EC50 (MDA-MB-157) was 4.59 µM, the EC50 (MDA-MB-468) was 0.38 µM and the inhibition at 10 µM [20] was -9%.
